Assay results published in patent US20040024024A1, “Aromatic sulfone hydroxamates and their use as protease inhibitors” (priority 2001, published 2004).

Legend:
Human recombinant MMP-2 = biological target: T1, Human recombinant MMP-2 (Homo sapiens, UniProt P08253); experiment: In vitro MMP inhibition, IC50 determination (fluorogenic substrate I); format: biochemical
T1 construct: made in house; host or cells: MMP-2-transfected p2AHT2 cells
T1 sequence (P08253 110-660): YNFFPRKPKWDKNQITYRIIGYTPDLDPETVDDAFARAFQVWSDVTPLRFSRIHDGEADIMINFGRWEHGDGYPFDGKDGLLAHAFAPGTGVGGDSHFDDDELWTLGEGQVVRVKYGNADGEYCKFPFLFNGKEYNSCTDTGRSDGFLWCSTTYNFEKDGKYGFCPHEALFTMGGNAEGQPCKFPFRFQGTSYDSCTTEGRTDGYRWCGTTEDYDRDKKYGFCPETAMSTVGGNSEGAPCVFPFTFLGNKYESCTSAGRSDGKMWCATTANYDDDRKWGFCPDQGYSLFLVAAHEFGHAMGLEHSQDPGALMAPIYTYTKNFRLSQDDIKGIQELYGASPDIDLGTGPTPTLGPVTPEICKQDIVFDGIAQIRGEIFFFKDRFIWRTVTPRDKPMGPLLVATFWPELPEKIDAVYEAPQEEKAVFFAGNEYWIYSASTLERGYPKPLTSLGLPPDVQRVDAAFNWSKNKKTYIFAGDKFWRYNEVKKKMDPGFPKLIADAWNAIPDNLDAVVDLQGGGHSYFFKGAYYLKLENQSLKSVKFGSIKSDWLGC
Procedure: (§1) Several hydroxamates and salts thereof were analyzed in in vitro assays to determine their ability to inhibit the MMP cleavage of peptide substrates. Inhibition (Ki) and IC50 constants were calculated from the assayed hydroxamate-MMP interactions.
(§2) Human recombinant MMP-1, MMP-2, MMP-9, MMP-13, and MMP-14 were used in this assay. All enzymes were prepared in Assignee's laboratories following usual laboratory procedures. Protocols for the preparation and use of these enzymes are available in the scientific literature. See, e.g., Enzyme Nomenclature (Academic Press, San Diego, Calif., 1992) (and the citations therein). See also, Frije et al., J. Biol. Chem., 26(24), 16766-73 (1994).
The MMP-2 proenzyme was purified by gelatin Sepharose chromatography from MMP-2-transfected p2AHT2 cells provided by Dr. Gregory Goldberg of Washington University (St. Louis, Mo.).
(§3) All MMPs were activated using 4-aminophenylmercuric acetate (“APMA”, Sigma Chemical, St. Louis, Mo.) or trypsin. MMP-9 also was activated using human recombinant MMP-3 (purified in Assignee's laboratory following standard cloning and purification techniques).
(§4) Two fluorogenic, methoxycoumarin-containing polypeptide substrates were used in the MMP inhibition assays:
(§5) MCA-ProLeuGlyLeuDpaAlaArgNH2 (I)
(§6) Here, “Dpa” is 3-(2,4-dinitrophenyl)-L-2,3-diaminopropionyl group, and “MCA” is 7-methoxycoumarin-4-yl acetyl. Substrate (I) was purchased from Baychem (Redwood City, Calif.), and substrate II was prepared Assignee's laboratory. Substrate I was used in the IC50 determination assays, while substrate II was used in the Ki determination assays. In the absence of MMP inhibitory activity, either substrate is cleaved at the Gly-Leu peptide bond. This cleavage separates the highly fluorogenic peptide from the 2,4-dinitrophenyl quencher, thus resulting in increase of fluorescent intensity.
(§7) The stock solutions of the assayed hydroxamates (or salts thereof) were prepared in 1% dimethyl sulfoxide (DMSO). These stock solutions were diluted in Buffer A (100 mM Tris-HCl, 100 mM NaCl, 10 mM CaCl2, 0.05% polyoxyethylene 23 lauryl ether, pH 7.5) to obtain solutions with different hydroxamate concentrations, i.e., assay solutions with different concentrations of the assayed MMP inhibitory compound. The experiment controls contained the same amount of Buffer A/DMSO as the assayed sample, but contained no hydroxamate (or salt thereof).
(§8) The assays from which the IC50 determinations were made were performed as follows. The MMPs were activated with either trypsin or APMA (4-aminophenylmercuric acetate, Sigma Chemical, St. Louis, Mo.). The assayed hydroxamate samples were, incubated in Microfluorrm White Plates (Dynatech, Chantilly, VA) and analyzed on a Perkin Elmer L550 plate reader (Norwalk, Conn.). The excitation wavelength was 328 nm, and the emission wavelength—415 nm. All samples (assayed hydroxamates and controls) were incubated in separate plates at room temperature in the presence of 4 μM of MMP substrate (I). As stated in the previous paragraph, samples containing varying concentrations of the same assayed hydroxamate were prepared. Inhibition was measured as a reduction in fluorescent intensity as a function of MMP inhibitor concentration.

Human recombinant MMP-13 = biological target: T2, Human recombinant MMP-13 (Homo sapiens, UniProt P45452); experiment: as above; format: biochemical
T2 construct: made in house; host or cells: baculovirus / insect cells
Procedure: as §1, §2
The expressed proenzyme was first purified over a heparin agarose column, and then over a chelating zinc chloride column. The proenzyme was then activated by APMA for use in the assay. Further details on baculovirus expression systems may be found in, for example, Luckow et al., J. Virol., 67, 4566-79 (1993). See also, O'Reilly et al, Baculovirus Expression Vectors: A Laboratory Manual (W. H. Freeman and Co., New York, N.Y., 1992). See also, King et al., The Baculovirus Expression System: A Laboratory Guide (Chapman & Hall, London, England, 1992).
as §3, §4, §5, §6, §7, §8

[1] = substrate (I) 4 μM, room temperature, values not in parenthesis

COc1ccc(C(=O)NCCCOc2ccc(S(=O)(=O)C3(C(=O)NO)CCOCC3)cc2)cc1 [Example 17, tetrahydro-N-hydroxy-4-[[4-[3-[(4-methoxybenzoyl)amino]propoxy]phenyl]sulfonyl]-2H-pyran-4-carboxamide]
IC50 (Human recombinant MMP-2; [1]): 550 nM
IC50 (Human recombinant MMP-13; [1]): 1.6 nM

O=C(NO)C1(S(=O)(=O)c2ccc(OCCCc3ccc4ccccc4c3)cc2)CCOCC1 [Example 36]
IC50 (Human recombinant MMP-2; [1]): 95 nM
IC50 (Human recombinant MMP-13; [1]): 2.4 nM

CC(C)c1cccc(CCCOc2ccc(S(=O)(=O)C3(C(=O)NO)CCOCC3)cc2)c1 [Example 94]
IC50 (Human recombinant MMP-2; value outside parenthesis): 17.8 nM
IC50 (Human recombinant MMP-13; value outside parenthesis): 3.7 nM

CC(C)CCc1cccc(CCCOc2ccc(S(=O)(=O)C3(C(=O)NO)CCOCC3)cc2)c1 [Example 96]
IC50 (Human recombinant MMP-2; value outside parenthesis): 39.1 nM
IC50 (Human recombinant MMP-13; value outside parenthesis): 15.3 nM

COCCN1CCC(C(=O)NO)(S(=O)(=O)c2ccc(OCCCc3nc(-c4ccc(CCC(C)C)cc4C)no3)cc2)CC1 [Example 100]
IC50 (Human recombinant MMP-2; value outside parenthesis): 1690 nM
IC50 (Human recombinant MMP-13; value outside parenthesis): 153 nM

O=C(NCCCOc1ccc(S(=O)(=O)C2(C(=O)NO)CCOCC2)cc1)c1cc2ccccc2o1 [Example 101]
IC50 (Human recombinant MMP-2; value outside parenthesis): 18.2 nM
IC50 (Human recombinant MMP-13; value outside parenthesis): 0.2 nM

COCCN1CCC(C(=O)NO)(S(=O)(=O)c2ccc(OCCCn3nnc(-c4ccc(S(C)(=O)=O)cc4)n3)cc2)CC1 [Example 104]
IC50 (Human recombinant MMP-2; value outside parenthesis): 44.2 nM
IC50 (Human recombinant MMP-13; value outside parenthesis): 0.8 nM

O=C(NO)C1(S(=O)(=O)c2ccc(OCCCc3csc(-c4ccccc4)n3)cc2)CCOCC1 [Example 107]
IC50 (Human recombinant MMP-2; value outside parenthesis): 34 nM
IC50 (Human recombinant MMP-13; value outside parenthesis): 5.5 nM

COCCN1CCC(C(=O)NO)(S(=O)(=O)c2ccc(OCCCN3C(=O)[C@@H](C)N(c4ccccc4)C3=O)cc2)CC1 [Example 108]
IC50 (Human recombinant MMP-2; value outside parenthesis): 434 nM
IC50 (Human recombinant MMP-13; value outside parenthesis): 20 nM

NC(=O)c1cccc(-c2noc(CCCOc3ccc(S(=O)(=O)C4(C(=O)NO)CCN(C5CC5)CC4)cc3)n2)c1 [Example 131]
IC50 (Human recombinant MMP-2; value outside parenthesis): 108 nM
IC50 (Human recombinant MMP-13; value outside parenthesis): 4.5 nM

O=C(NO)C1(S(=O)(=O)c2ccc(OCc3nc(-c4ccc(OC(F)(F)F)cc4)no3)cc2)CCOCC1 [Example 132]
IC50 (Human recombinant MMP-2; value outside parenthesis): 61.7 nM
IC50 (Human recombinant MMP-13; value outside parenthesis): 3.7 nM

O=C1CN(c2ccc(OC(F)(F)F)cc2)C(=O)N1CCCOc1ccc(S(=O)(=O)C2(C(=O)NO)CCN(C3CC3)CC2)cc1 [Example 133]
IC50 (Human recombinant MMP-2; value outside parenthesis): 84.4 nM
IC50 (Human recombinant MMP-13; value outside parenthesis): 4.3 nM

C[C@@H]1C(=O)N(CCCOc2ccc(S(=O)(=O)C3(C(=O)NO)CCOCC3)cc2)C(=O)N1c1ccc(OC(F)(F)F)cc1 [Example 136]
IC50 (Human recombinant MMP-2; value outside parenthesis): 229 nM
IC50 (Human recombinant MMP-13; value outside parenthesis): 4.4 nM

COCCN1CCC(C(=O)NO)(S(=O)(=O)c2ccc(OCCCn3nnc(-c4cc(F)ccc4C)n3)cc2)CC1 [Example 141]
IC50 (Human recombinant MMP-2; value outside parenthesis): 32.5 nM
IC50 (Human recombinant MMP-13; value outside parenthesis): 3.6 nM

COCCN1CCC(C(=O)NO)(S(=O)(=O)c2ccc(OCCCn3nnc(-c4cccs4)n3)cc2)CC1 [Example 143]
IC50 (Human recombinant MMP-2; value outside parenthesis): 4.9 nM
IC50 (Human recombinant MMP-13; value outside parenthesis): 1.4 nM

COCCN1CCC(C(=O)NO)(S(=O)(=O)c2ccc(OCCCn3nnc(-c4ccc5c(c4)OCO5)n3)cc2)CC1 [Example 146]
IC50 (Human recombinant MMP-2; value outside parenthesis): 11.1 nM
IC50 (Human recombinant MMP-13; value outside parenthesis): 0.4 nM

COCCN1CCC(C(=O)NO)(S(=O)(=O)c2ccc(OCCCn3nnc(-c4ccccc4C)n3)cc2)CC1 [Example 151]
IC50 (Human recombinant MMP-2; value outside parenthesis): 38.4 nM
IC50 (Human recombinant MMP-13; value outside parenthesis): 2.6 nM

O=C(NO)C1(S(=O)(=O)c2ccc(OCCCc3cccc(-c4ccccn4)c3)cc2)CCOCC1 [Example 153]
IC50 (Human recombinant MMP-2; value outside parenthesis): 192 nM
IC50 (Human recombinant MMP-13; value outside parenthesis): 7.6 nM

CCOc1ccc(-c2nnn(CCCOc3ccc(S(=O)(=O)C4(C(=O)NO)CCN(CCOC)CC4)cc3)n2)cc1 [Example 156]
IC50 (Human recombinant MMP-2; value outside parenthesis): 32.1 nM
IC50 (Human recombinant MMP-13; value outside parenthesis): 1 nM

O=C(NO)C1(S(=O)(=O)c2ccc(OCCCc3cccc(-c4cc(F)cc(F)c4)c3)cc2)CCOCC1 [Example 159]
IC50 (Human recombinant MMP-2; value outside parenthesis): 1370 nM
IC50 (Human recombinant MMP-13; value outside parenthesis): 24.4 nM

COc1ccc(C(=O)C(C#N)CCOc2ccc(S(=O)(=O)C3(C(=O)NO)CCOCC3)cc2)cc1 (centres unmarked) [Example 176]
IC50 (Human recombinant MMP-2; value outside parenthesis): 109 nM
IC50 (Human recombinant MMP-13; value outside parenthesis): 7.8 nM

C[C@H]1C(=O)N(CCCOc2ccc(S(=O)(=O)C3(C(=O)NO)CCOCC3)cc2)C(=O)N1c1ccccc1 [Example 177]
IC50 (Human recombinant MMP-2; value outside parenthesis): 333 nM
IC50 (Human recombinant MMP-13; value outside parenthesis): 17 nM

CC(C)Cc1ccc(-c2nnc(CCCOc3ccc(S(=O)(=O)C4(C(=O)NO)CCOCC4)cc3)o2)cc1 [Example 179]
IC50 (Human recombinant MMP-2; value outside parenthesis): 247 nM
IC50 (Human recombinant MMP-13; value outside parenthesis): 1.1 nM

COCCN1CCC(C(=O)NO)(S(=O)(=O)c2ccc(OCCCn3nnc(-c4ccccc4OC)n3)cc2)CC1 [Example 180]
IC50 (Human recombinant MMP-2; value outside parenthesis): 443 nM
IC50 (Human recombinant MMP-13; value outside parenthesis): 17 nM

CC(C)c1ccc(N2CCN(CCCOc3ccc(S(=O)(=O)C4(C(=O)NO)CCOCC4)cc3)C2=O)cc1 [Example 186]
IC50 (Human recombinant MMP-2; value outside parenthesis): 610 nM
IC50 (Human recombinant MMP-13; value outside parenthesis): 13.5 nM

CCCCc1ccc(N2CCN(CCCOc3ccc(S(=O)(=O)C4(C(=O)NO)CCOCC4)cc3)C2=O)cc1 [Example 192]
IC50 (Human recombinant MMP-2; value outside parenthesis): 1260 nM
IC50 (Human recombinant MMP-13; value outside parenthesis): 15.4 nM

O=C1N(CCCOc2ccc(S(=O)(=O)C3(C(=O)NO)CCOCC3)cc2)CCN1c1ccccc1 [Example 196]
IC50 (Human recombinant MMP-2; value outside parenthesis): 32.2 nM
IC50 (Human recombinant MMP-13; value outside parenthesis): 11.4 nM

COCCN1CCC(C(=O)NO)(S(=O)(=O)c2ccc(OCCCn3nc(C(F)(F)F)cc3-c3ccc(OC)cc3)cc2)CC1 [Example 198]
IC50 (Human recombinant MMP-2; value outside parenthesis): 4530 nM
IC50 (Human recombinant MMP-13; value outside parenthesis): 835 nM

COCCN1CCC(C(=O)NO)(S(=O)(=O)c2ccc(OCCCn3ncc(-c4ccc(OC)cc4)c3C(F)(F)F)cc2)CC1 [Example 202]
IC50 (Human recombinant MMP-2; value outside parenthesis): 1600 nM
IC50 (Human recombinant MMP-13; value outside parenthesis): 41.9 nM

COc1ccc(C(=O)N(C)CCCOc2ccc(S(=O)(=O)C3(C(=O)NO)CCOCC3)cc2)cc1 [Example 205]
IC50 (Human recombinant MMP-2; value outside parenthesis): 4780 nM
IC50 (Human recombinant MMP-13; value outside parenthesis): 17.6 nM

O=C(NO)C1(S(=O)(=O)c2ccc(OCCCc3nc(-c4cc(C(F)(F)F)cc(C(F)(F)F)c4)no3)cc2)CCOCC1 [Example 216]
IC50 (Human recombinant MMP-2; value outside parenthesis): 1950 nM
IC50 (Human recombinant MMP-13; value outside parenthesis): 51.2 nM

CC(=O)NC(C)(C)CCOc1ccc(S(=O)(=O)C2(C(=O)NO)CCN(C3CC3)CC2)cc1 [Example 221]
IC50 (Human recombinant MMP-2; value outside parenthesis): 8800 nM
IC50 (Human recombinant MMP-13; value outside parenthesis): 244 nM

CS(=O)(=O)c1ccccc1S(=O)(=O)N1CC(Oc2ccc(S(=O)(=O)C3(C(=O)NO)CCOCC3)cc2)C1 [Example 483]
IC50 (Human recombinant MMP-13; value outside parentheses (Ki in parenthesis)): 29 nM
